Results as given in patent US20060099712A1, “Correlation of anti-cancer activity of dyes with redox potentials” (Eastman Kodak Company, priority 2004, published 2006).
Values after ≈ are worked out from the molar mass of the structure shown. Values joined by “and” are separate entries in the source; they are usually repeats but may differ in a detail not shown here. Equal entries are not always repeated. Where two headings read alike, the source gives them in different places.

Columns and labels:
[1] = system: CX-1 Human Colon Carcinoma; assay: Clonogenic dye screening assay, CX-1 cells (IC50); format: cell-based; set-up: CX: unit not given here; conditions: for IC50: Homo sapiens; for Selectivity: IC50 CV-1 / IC50 cell line 2 (CX-1); for CV/CX: selectivity ratio of IC50 values; for CV/CX (selectivity, kill ratio): ratio of IC50 in normal CV-1 line to IC50 in carcinoma CX-1 line; for CX (IC50 in the CX-1 cell line): 3 hrs treatment, unit from method b117-118
How it was run: (§1)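 Cells seeded 16-30 h ahead (2000 CX-1 or 1000 CV-1 per well), exposed to serially diluted dyes for 3 h at 37 °C, rinsed three times, then grown into colonies. Eight-point curves spanned 0.32-0.0015 μg/mL (CX-1) and 3.2-0.025 μg/mL (CV-1). IC50 is the concentration killing 50% of cells.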

[2] = system: SCC 68 Human Squamous Cell Carcinoma; assay: Initial in vitro screening, squamous cell carcinoma cells; format: cell-based; conditions: for Selectivity: IC50 CV-1 / IC50 cell line 7 (squamous cell carcinoma); for IC50: read-out: IC50 (concentration at which 50% of the cells of the culture are killed)
Text: (§2) Other publications have shown that some cyanine dyes show anti-cancer activity. See I. Minami, Y. Kozai, H. Nomura and T. Tashiro, Chem. Phar. Bull. 30:3106 (1982); W. M. Anderson, D. L. Delinick, L. Benninger, J. M. Wood, S. T. Smiley and L. B. Chen, Biochemical Pharmacology, 45:691 (1993). […] (See L. G. S. Brooker, L. A. Sweet, Science, 105, (1947) and I. Minami, Y. Kozai, H. Nomura, T. Tashiro, Chem. Pharm. Bull., 30,3106 (1982) on chemotherapeutic investigations of cyanine dyes.) Table I lists initial in vitro screening results in various cell lines and a comparison with Adriamycin, which is a widely used chemotherapeutic agent.
(§3) Description of Cell Line • 1. CV-1 Normal Monkey Kidney Epithelial (control) • 2. CX-1 Human Colon Carcinoma • 3. Human Breast Carcinoma • 4. Human Pancreatic Carcinoma • 5. Human Bladder Carcinoma • 6. Human Lung Carcinoma • 7. Human Squamous Cell Carcinoma • 8. Human Adrenal Cortex Carcinoma

[3] = system: CV-1 Normal Monkey Kidney Epithelial; assay: Clonogenic dye screening assay, CV-1 cells (IC50); format: cell-based, African green monkey; conditions: for IC50: Primates; for IC50 (concentration at which 50% of the cells of the culture are killed): cell line 1, CV-1 normal control
How it was run: as §1

[4] = system: CCL 105 Human Adrenal Cortex Carcinoma; assay: Initial in vitro screening, adrenal cortex carcinoma cells; format: cell-based; conditions: for Selectivity: IC50 CV-1 / IC50 cell line 8 (adrenal cortex carcinoma); for IC50: read-out: IC50 (concentration at which 50% of the cells of the culture are killed)
Text: as §2, §3

[5] = system: MCF-7 Human Breast Carcinoma; assay: Initial in vitro screening, breast carcinoma cells; format: cell-based; conditions: for Selectivity: IC50 CV-1 / IC50 cell line 3 (breast carcinoma); for IC50: MCF7, read-out: IC50 (concentration at which 50% of the cells of the culture are killed); for IC50 / IC50 (concentration at which 50% of the cells of the culture are killed): cell line 3, MCF-7 human breast carcinoma, unit from method
Text: as §2, §3

[6] = system: EJ Human Bladder Carcinoma; assay: Initial in vitro screening, bladder carcinoma cells; format: cell-based; conditions: for Selectivity: IC50 CV-1 / IC50 cell line 5 (bladder carcinoma); for IC50 / IC50 (concentration at which 50% of the cells of the culture are killed): cell line 5, EJ human bladder carcinoma, unit from method; for IC50: read-out: IC50 (concentration at which 50% of the cells of the culture are killed)
Text: as §2, §3

[7] = CX-1, Table XIX, CX-1 cells, read-out: CX
[8] = CX-1, cell line 2, CX-1, unit from method, read-out: IC50 (concentration at which 50% of the cells of the culture are killed)
[9] = cell line 7, SCC 68 human squamous cell carcinoma, unit from method
[10] = CV-1, Table XIX, CV-1 cells, read-out: CV
[11] = CV-1, cell line 1, CV-1 normal control, unit from method, read-out: IC50 (concentration at which 50% of the cells of the culture are killed)
[12] = cell line 8, CCL 105 human adrenal cortex carcinoma, unit from method

Q: With CCN1C(=CC=Cc2sc3cc4ccccc4nc3[n+]2CC)Sc2cc3ccccc3nc21 [Dye D-150] as the compound, how does the IC50 ([1]; CX-1, 3 hrs treatment, colonies after 7-10 days, unit from method, read-out: CX (IC50 in the CX-1 cell line)) read?
A: 0.03 µg/mL

Q: What about the IC50 [1, 7] of the same compound?
A: 0.03 µg/mL

Q: What about the IC50 [1, 8] of the same compound?
A: 0.03 µg/mL

Q: And the Selectivity [1]?
A: 100

Q: And the CV/CX ([1]; Table XIX)?
A: 100.000

Q: What about the “CV/CX (selectivity, kill ratio)” value [1] of the same compound?
A: 100

Q: And the Selectivity [2]?
A: 30

Q: What about the IC50 [2, 9] of the same compound?
A: 0.1 µg/mL

Q: What about the IC50 ([3]; CV-1, 3 hrs treatment, colonies after 7-10 days, unit from method, read-out: CV (IC50 in the CV-1 cell line)) of the same compound?
A: 3 µg/mL

Q: What about the IC50 [3, 10] of the same compound?
A: 3 µg/mL

Q: What about the IC50 [3, 11] of the same compound?
A: 3 µg/mL

Q: What about the Selectivity [4] of the same compound?
A: 300

Q: And the IC50 [4, 12]?
A: 0.01 µg/mL

Q: And the Selectivity [5]?
A: 100

Q: And the IC50 [5]?
A: 0.03 µg/mL

Q: What about the Selectivity [6] of the same compound?
A: 300

Q: And the IC50 [6]?
A: 0.01 µg/mL

Q: What does the source list for CCN1/C(=C/C=C/c2sc3ccccc3[n+]2CC)Sc2ccccc21.[I-] [Dye D-101]?
A: CX (IC50 in the CX-1 cell line) ([1]; colonies after 7-10 days): <5 ng/mL; Selectivity [1]: 100; CX ([1]; Table XIX, CX-1 cells): 0.004; CV/CX ([1]; Table XIX): 100.000 and 75.000; CV/CX ([1]; Table XV): 100.0; CV/CX (selectivity, kill ratio) [1]: 100 and >100.0; Selectivity [2]: 13.3; IC50 (concentration at which 50% of the cells of the culture are killed) ([3]; unit from method): 0.5 µg/mL and 0.50 µg/mL; Selectivity [4]: >100; Selectivity [5]: 13.3; IC50 (concentration at which 50% of the cells of the culture are killed) [5]: 0.03 µg/mL; Selectivity [6]: >100; IC50 (concentration at which 50% of the cells of the culture are killed) [6]: <5 ng/mL

Q: For CCN1C(=CC=Cc2sc3cc4ccccc4cc3[n+]2CC)Sc2cc3ccccc3cc21 [AC-2], which Selectivity [1] is on record?
A: >60

Q: And the “IC50 (concentration at which 50% of the cells of the culture are killed)” value ([1]; cell line 2, CX-1, unit from method)?
A: <5 ng/mL

Q: And the Selectivity [2]?
A: >60

Q: What about the “IC50 (concentration at which 50% of the cells of the culture are killed)” value [2, 9] of the same compound?
A: <5 ng/mL

Q: What about the “IC50 (concentration at which 50% of the cells of the culture are killed)” value ([3]; unit from method) of the same compound?
A: 0.30 µg/mL

Q: What about the Selectivity [4] of the same compound?
A: >60

Q: What about the “IC50 (concentration at which 50% of the cells of the culture are killed)” value [4, 12] of the same compound?
A: <5 ng/mL

Q: And the Selectivity [5]?
A: >60

Q: What about the “IC50 (concentration at which 50% of the cells of the culture are killed)” value [5] of the same compound?
A: <.005 µg/mL

Q: And the Selectivity [6]?
A: >60

Q: And the “IC50 (concentration at which 50% of the cells of the culture are killed)” value [6]?
A: <5 ng/mL

Q: With CCN1/C(=C\C=C\C2=[N+](CC)c3ccccc3C2(C)C)C(C)(C)c2ccccc21 [Dye D-103] as the compound, how does the IC50 ([1]; CX-1, read-out: CX) read?
A: 0.01 µg/mL

Q: And the IC50 ([1]; CX-1, read-out: CX (IC50 in the CX-1 cell line))?
A: 0.01 µg/mL

Q: And the CV/CX ([1]; Table XIX)?
A: 500.000

Q: What about the CV/CX ([1]; Table XV) of the same compound?
A: 500.0

Q: What about the “CV/CX (selectivity, kill ratio)” value [1] of the same compound?
A: 500

Q: And the IC50 ([3]; CV-1, read-out: CV)?
A: 5 µg/mL

Q: What about the IC50 ([3]; CV-1, read-out: CV (IC50 in the CV-1 cell line)) of the same compound?
A: 5 µg/mL

Q: For COc1cccc2c1C(=O)c1c(O)c3c(c(O)c1C2=O)C[C@@](O)(C(=O)CO)C[C@@H]3O[C@H]1C[C@H](N)[C@H](O)[C@H](C)O1 [Adriamycin, reference compound], which IC50 [1, 8] is on record?
A: 0.55 µg/mL (≈ 1.01 µM)

Q: And the Selectivity [1]?
A: 1.5

Q: And the Selectivity [2]?
A: 10

Q: What about the IC50 [2, 9] of the same compound?
A: 0.08 µg/mL (≈ 0.147 µM)

Q: And the IC50 [3, 11]?
A: 0.8 µg/mL (≈ 1.47 µM)

Q: What about the Selectivity [4] of the same compound?
A: 16

Q: And the IC50 [4, 12]?
A: 0.05 µg/mL (≈ 0.092 µM)

Q: What about the Selectivity [5] of the same compound?
A: 16

Q: What about the IC50 [5] of the same compound?
A: 0.05 µg/mL (≈ 0.092 µM)

Q: And the Selectivity [6]?
A: 8

Q: And the IC50 [6]?
A: 0.1 µg/mL (≈ 0.184 µM)

Q: What does the source list for CCN1/C(=C/C=C/c2sc3cc4ccccc4cc3[n+]2CC)Sc2cc3ccccc3cc21 [Dye D-160]?
A: CX (IC50 in the CX-1 cell line) ([1]; colonies after 7-10 days): 50 ng/mL; IC50 [1, 8]: < 0.005 µg/mL; CX ([1]; Table XIX, CX-1 cells): 0.004; CV/CX ([1]; Table XIX): 75.000; CV/CX (selectivity, kill ratio) [1]: 100; IC50 [2, 9]: < 0.005 µg/mL; IC50 [3, 11]: 0.3 µg/mL; IC50 [4, 12]: < 0.005 µg/mL; IC50 [5]: < 0.005 µg/mL; IC50 [6]: < 0.005 µg/mL

Q: Which results are given for CCN1/C(=C/C=C/c2sc3cc4ccccc4cc3[n+]2CC)Sc2cc3ccccc3cc21 [Dye D-109]?
A: CX (IC50 in the CX-1 cell line) ([1]; colonies after 7-10 days): <5 ng/mL; IC50 [1, 7]: 0.004 µg/mL; CV/CX ([1]; Table XIX): 75.000; CV/CX (selectivity, kill ratio) [1]: 60 and >60.0; IC50 [3, 10]: 0.3 µg/mL
